Results taken from patent US10696707B2, “Polyene macrolide derivative” (Shionogi & Co., Ltd., priority 2014, dated 2020).
Converted amounts (≈) assume the structure as drawn. Like-named read-outs stand apart in the source and are kept apart here.

Tests used:
[1] = test system: C. albicans ATCC90028; test: Antifungal activity test, MIC by broth microdilution (CLSI M27-A3); assay type: cell-based; conditions: Candida albicans
Outline: (§1)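 CLSI broth microdilution in RPMI 1640 with 2% glucose, 0.165 mol/L MOPS, pH 7.0; two-fold DMSO dilutions. MIC = lowest concentration giving 100% inhibition versus growth control.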

[2] = test system: HepG2 cells; assay type: cell-based; conditions: human, 71 h
Protocol: The Cytotoxicith of the compounds of the present invention was evaluated by measuting cell numbers automatically using the cell image analyzer, Toxinsight® (Thermofisher Scientific).
HepG2 cells were seeded in 384-well black plates (100000 cells/mL) and allowed to attach for approximately 24 hours at 37° C. in humidified CO2 incubator. Test compounds and positive control (Fungizone®) were initially dissolved as concentrated 20 mmol/L stock solutions in DMSO and added to culture medium, to the final concentration; 1.6, 3.1, 6.3, 12.5, 25, 50, 100 μmol/L. The negative control well was treated with DMSO alone. After exposure of each test compound for approximately 71 hours, each well were added with Hoechst 33342, for staining of nuclei, diluted in D-PBS to the final concentration; 1 μg/mL, and after that, fixed with 4% paraformaldehyde. The cell number, stained with Hoechst 33342, was counted by Toxinsight® (Thermofisher Scientific) in each well. The mean value of cell number and the standard deviation (SD) was calculated (N=4).

[3] = test system: A. fumigatus ATCC204305; test: Antifungal activity test, MIC by broth microdilution (CLSI M38-A2); assay type: cell-based; conditions: Aspergillus fumigatus
Outline: as §1

[4] = test system: A. flavus ATCC204304; test: as above; assay type: cell-based; conditions: Aspergillus flavus
Outline: as §1

[5] = Test Example 4: nephrotoxicity, kidney marker gene expression by quantitative RT-PCR after intravenous administration; assay type: in vivo; conditions: mouse, kidney, mice, nephrotoxicity positive when ΔΔCt of two-third of target genes (Kim1, Timp1, Lcn2) >3
Protocol: (§2) The expression level of marker genes for nephrotoxicity was determined by quantitative RT-PCR to evaluate nephrotoxicity of the compound of the present invention. The compound of the present invention or vehicle was intravenously administered to mice and their kidneys were isolated. After removal of the kidney capsule, all of the kidneys were sliced into two equal halves, and stored at −80° C. in RNAlater® (Ambion) until use. Samples were disrupted and homogenized in QIAzol Lysis Reagent with TissueLyser (Qiagen), and total RNA was extracted using an RNeasy® Mini kit (Qiagen). Total RNA concentrations were determined to read OD260 by absorptiometer.
(§3) The level of expression of the following target genes was determined using one-step quantitative real-time PCR: Kim1, Timp1, and Lcn2. Total RNA (80 ng/2 μL) was used as the template, and TaqMan Gene Expression Assays (Applied Biosystems, for Haver1 (Kim1), assay ID: Mm00506686_m1; Timp1, Mm01341361_m1; Lcn2, Mm01324470_m1) or TaqMan Endogenous Controls (Gapdh, predesigned assay reagent supplied by ABI, Applied Biosystems) were employed as gene-specific probe and primer sets. Quantitative RT-PCR was performed using a QuantiTect™ Probe RT-PCR kit (Qiagen), and transcript levels were quantitated with an Applied Biosystems 7900HT Fast Real Time PCR System (Applied Biosystems). Reverse transcription and amplification conditions were set as follows: 50° C. for 30 min, 95° C. for 15 min, followed by 40 cycles at 95° C. for 15 s and 60° C. for 1 min. The resulting cycle threshold (Ct) value was processed based on the comparative Ct method (ΔΔCt Method), where Gapdh was used as an endogenous reference gene to normalize the expression level of target genes.
(§4) The ΔCt was calculated as follows: Ct, Gapdh−Ct, target gene.
(§5) The ΔΔCt was calculated as follows: ΔCt, treated sample−ΔCt, average of vehicle control sample.
(§6) Higher ΔΔCt values indicate higher expression rates of the target gene and therefore high risk for nephrotoxicity.

[6] = test system: red blood cells (5% RBC suspension); test: Test Example 2-2: in vitro hemolytic activity test (upper limit 200 μmol/L); assay type: cell-based; conditions: Erythrocyte, read-out: hemolysis IC50
Protocol: Nephrotoxic potentials of the compounds of the present invention whose X is —N(R^F)—CO—X^1 and X^1 is the group represented by formula (III) and T is —N(R^a5)— were investigated by in vitro hemolytic activity test under the condition that the upper limit was 200 μmol/L as the required concentration to 50% of hemolysis (IC50).
Defibrinated sterile blood was centrifuged at 700×g for 3 minutes and, and the supernatant was removed for 100% of red blood cells. After the cleaning with physiological saline, the washed blood cells was suspended in the medium (Earle's balanced salt sodium, bicarbonate, 0.1 g/L L-glutamine without phenol red), and was diluted by 5% (5% RBC suspension).
The washed blood was diluted by 5% in water for injection (solution of complete hemolysis), and was used as the indication of optical density for complete hemolysis.
The compounds of the present invention solution in DMSO (several and doubling dilutions starting from 10 mmol/L), DMSO as the negative control, and Amphotericin B as the positive control were used, and each 5 μL of these was added in to a well of V-form 96 well type microplate. Finally, the maximum concentration of the compounds of the present invention solution in DMSO was 200 μmol/L by adding 245 μL of the medium or 5% RBC suspension into the well.
Two hundred fifty μL of the solution of complete hemolysis was added into another well and the microplate was incubated at 37° C. in 5% of CO2 concentration for an hour.
After the incubation, each 100 μL of supernatants in wells was collected by centrifugation of the microplate at 300×g for 5 minutes and was located on a well of flat-form 96 well type microplate. An absorbance of each supernatant was measured at wavelength of 540 nm.
Percent hemolysis was calculated by using the followed equation. The required concentration to 50% of hemolysis (IC50) was calculated based on the percent hemolysis. […] Hemolysis (%)=(CR−VM)×100÷(VL−VR) Where:
CR: Absorbance of 5% RBC suspension incubated with the compounds of the present invention solution in DMSO
VM: Absorbance of medium incubated with the compounds of the present invention solution in DMSO
VL: Absorbance of solution of complete hemolysis
VR: Absorbance of 5% RBC suspension incubated with DMSO
The “>200” in the table means above IC50 value exceeded the upper concentration 200 μmol/L.

[7] = test system: Kim1, Timp1, and Lcn2; test: Test Example 4: nephrotoxicity, kidney marker gene expression by quantitative RT-PCR after intravenous administration; assay type: in vivo; conditions: mice, nephrotoxicity positive when ΔΔCt of two-third of target genes (Kim1, Timp1, Lcn2) >3
Protocol: as §2, §3, §4, §5, §6

[8] = C. albicans ATCC90028, broth microdilution, 35° C., 24-48 hours, 100% inhibition, read-out: MIC
[9] = A. fumigatus ATCC204305, broth microdilution, 35° C., 24-48 hours, 100% inhibition, read-out: MIC
[10] = A. flavus ATCC204304, broth microdilution, 35° C., 24-48 hours, 100% inhibition, read-out: MIC
[11] = comparative example, hemolysis method 200 (upper limit 200 μmol/L), 37° C., an hour

| SMILES | MIC [1, 8] [µg/mL] | cytotoxicity (lowest cytotoxicity concentration) [2] [µmol/L] | MIC [3, 9] [µg/mL] | MIC [4, 10] [µg/mL] | MTD [5] [mg/kg] | IC50 [6, 11] [µM] | MIC ([1]; ATCC90028) [µg/mL] | MIC ([3]; ATCC204305) [µg/mL] | MIC ([4]; ATCC204304) [µg/mL] | IC50 [6] [µM] | nephrotoxicity MTD [7] [mg/kg] |
| --- | --- | --- | --- | --- | --- | --- | --- | --- | --- | --- | --- |
| C[C@@H]1[C@H](O)[C@@H](C)/C=C/C=C/C=C/C=C/C=C/C=C/C=C/[C@H](O[C@@H]2O[C@H](C)[C@@H](O)[C@H](N)[C@@H]2O)C[C@@H]2O[C@](O)(C[C@@H](O)C[C@@H](O)[C@H](O)CC[C@@H](O)C[C@@H](O)CC(=O)O[C@H]1C)C[C@H](O)[C@H]2NC(=O)NCCC(=O)O [AmBCU, reference compound] | 0.5 (≈ 0.495 µM) | 25.2 | 1 (≈ 0.99 µM) | 1 (≈ 0.99 µM) | 3 | – | – | – | – | – | – |
| CNC(=O)N[C@H]1[C@@H]2C[C@@H](O[C@@H]3O[C@H](C)[C@@H](O)[C@H](N)[C@@H]3O)/C=C/C=C/C=C/C=C/C=C/C=C/C=C/[C@H](C)[C@@H](O)[C@@H](C)[C@H](C)OC(=O)C[C@H](O)C[C@H](O)CC[C@@H](O)[C@H](O)C[C@H](O)C[C@](O)(C[C@@H]1O)O2 [AmBMU, reference compound] | 0.5 (≈ 0.525 µM) | 12.5 | 1 (≈ 1.05 µM) | 1 (≈ 1.05 µM) | 12 | 130 | – | – | – | – | – |
| C[C@@H]1[C@H](O)[C@@H](C)/C=C/C=C/C=C/C=C/C=C/C=C/C=C/[C@H](O[C@@H]2O[C@H](C)[C@@H](O)[C@H](N)[C@@H]2O)C[C@@H]2O[C@](O)(C[C@@H](O)C[C@@H](O)[C@H](O)CC[C@@H](O)C[C@@H](O)CC(=O)O[C@H]1C)C[C@H](O)[C@H]2NC(=O)NCCN [AmBAU, reference compound] | – | 51.0 | – | – | 12 | – | 0.5 (≈ 0.51 µM) | 1 (≈ 1.02 µM) | 1 (≈ 1.02 µM) | 58 | – |
| C[C@@H]1[C@H](O)[C@@H](C)/C=C/C=C/C=C/C=C/C=C/C=C/C=C/[C@H](O[C@@H]2O[C@H](C)[C@@H](O)[C@H](N)[C@@H]2O)C[C@@H]2O[C@](O)(C[C@@H](O)C[C@@H](O)[C@H](O)CC[C@@H](O)C[C@@H](O)CC(=O)O[C@H]1C)C[C@H](O)[C@H]2NC(=O)N/N=C/[C@H](O)CO [I-235] | – | – | – | – | – | – | – | – | – | – | >24 |
| C[C@@H]1[C@H](O)[C@@H](C)/C=C/C=C/C=C/C=C/C=C/C=C/C=C/[C@H](O[C@@H]2O[C@H](C)[C@@H](O)[C@H](N)[C@@H]2O)C[C@@H]2O[C@](O)(C[C@@H](O)C[C@@H](O)[C@H](O)CC[C@@H](O)C[C@@H](O)CC(=O)O[C@H]1C)C[C@H](O)[C@H]2C(=O)O [AmB, Amphotericin B, reference compound] | – | <1.6 | – | – | 1 | 1.6 | – | – | – | – | – |
